US20230312504A1, “QUINOLINE COMPOUNDS” (Guangzhou Baiyunshan Pharmaceutical Holdings Co., Ltd. …, priority 2020, published 2023)

Columns and labels:
[1] = target: human wild-type RET kinase (Homo sapiens (Human), UniProt P07949); assay: 33P-labeled kinase activity assay, wild-type RET; type: biochemical; conditions: 33P-ATP at Km concentration; read-out: RET(WT) IC50
Description: (§1) The inhibitory activity of the test compounds against human wild-type and V804M mutant RET kinase was evaluated by measuring IC50 values in a ^33P-labeled kinase activity assay (Reaction Biology Corp).
(§2) Buffer conditions: 20 mM hydroxyethyl-piperazine-ethanesulfonic acid (Hepes) (pH 7.5), 10 mM MgCl2, 1 mM ethylene glycol-bis(aminoethyl ether)-tetraacetic acid (EGTA), 0.02% polyoxyethylene lauryl ether (Brij35), 0.02 mg/mL BSA, 0.1 mM Na3VO4, 2 mM dithiothreitol (DTT), and 1% DMSO.
(§3) Compound handling: testing compounds were dissolved in 100% DMSO to specific concentration. Serial dilution can be conducted using Integra Viaflo Assist in DMSO.
(§4) Procedures: the substrate was dissolved in freshly prepared Reaction Buffer, the test kinase was added into the substrate solution and gently mixed. Compounds in DMSO were added into the above kinase reaction mixture by Acoustic technology (Echo550) and incubate for 20 minutes at room temperature. The concentrations of the compounds in the reaction solutions were 3 μM, 1 μM, 0.333 μM, 0.111 μM, 0.0370 μM, 0.0123 μM, 4.12 nM, 1.37 nM, 0.457 nM and 0.152 nM. […] The reaction was conducted for 120 minutes at room temperature, and radioactivity was detected by filter-binding method. Kinase activity data can be expressed as the percent remaining kinase activity in test samples compared to vehicle (DMSO only) reactions. […]

[2] = target: human V804M mutant RET kinase (Homo sapiens (Human), UniProt P07949, V804M); assay: 33P-labeled kinase activity assay, V804M mutant RET; type: biochemical; conditions: 33P-ATP at Km concentration
Description: as §1, §2, §3, §4

[3] = Microsome metabolic stability, human; type: in vitro ADME; conditions: human liver microsomes, 1 μM compound, 0.5 mg/mL; read-out: MMS CLint(liver)-H
Description: (§5) To evaluate the Phase I metabolic stability of the test compound in animal and human liver microsomes.
(§6) 10 μL of the test compound working solution and 80 μL of microsome working solution (0.625 mg/mL liver microsome protein) were added to the reaction plate and NCF60 plate, respectively, while only microsome working solution was added to the Blank60 plate, then, the above incubation plates were placed in a 37° C. water bath for pre-incubation for approximately 10 minutes.
(§7) After the pre-incubation, 10 μL of a NADPH regeneration system working solution was added into each sample well of all the plates except the NCF60 plate and TO plate to start the reaction, and 10 μL of potassium phosphate buffer was added to each well of the NCF60 plate. The final reaction concentrations of the test sample or control sample were 1 μM, the concentration of the liver microsomes was 0.5 mg/mL.
(§8) After incubation for an appropriate time, 300 μL of a stop solution (acetonitrile solution containing 200 ng/mL tolbutamide) was added to each sample well to stop the reaction; stop solution and then NADPH regeneration system working solution were added to the TO plate in sequence.
(§9) All the sample plates were shaken and centrifuged at 3220 rpm for 20 min, and then 100 μL of supernatant was taken from each well and diluted with 300 μL of pure water for LC-MS/MS analysis. […]

[4] = Microsome metabolic stability, cynomolgus monkey; type: in vitro ADME; conditions: cynomolgus monkey liver microsomes, 1 μM compound, 0.5 mg/mL; read-out: MMS CLint(liver)-C
Description: as §5, §6, §7, §8, §9

[5] = Microsome metabolic stability, Beagle; type: in vitro ADME; conditions: dog; Beagle liver microsomes, 1 μM compound, 0.5 mg/mL; read-out: MMS CLint(liver)-D
Description: as §5, §6, §7, §8, §9

[6] = Microsome metabolic stability, rat; type: in vitro ADME; conditions: rat liver microsomes, 1 μM compound, 0.5 mg/mL; read-out: MMS CLint(liver)-R
Description: as §5, §6, §7, §8, §9

[7] = Microsome metabolic stability, mice; type: in vitro ADME; conditions: mouse; mice liver microsomes, 1 μM compound, 0.5 mg/mL; read-out: MMS CLint(liver)-M
Description: as §5, §6, §7, §8, §9

[8] = target: CYP1A2 (Homo sapiens (Human), UniProt P05177); assay: CYP inhibition in human liver microsomes, CYP1A2; type: in vitro ADME; conditions: 0.05-50 μM
Description: (§10) Mixed probe substrate of CYP isozymes were used to evaluate the inhibition of compounds of the present disclosure to human liver microsomal cytochrome P450 isoenzymes (CYP1A2, CYP2C9, CYP2C19, CYP2D6, and CYP3A4).
(§11) The testing compound was dissolved in DMSO to prepare a 10 mM stock solution. 178 μL of the mixture solution of human liver microsomes and substrate was added into non-inhibitor control (NIC) wells and test compound sample wells of the reaction plate, and the reaction plate was placed on ice. 2 μL of blank solvent and test compound working solution was taken from the dilution plate, respectively, and then added into the reaction plate (final concentration: 0.05-50 μM). The reaction plate was preheated in a 37±0.2° C. water bath for 10 minutes. 20 μL of cofactor solution was added into the reaction plate using a liquid handling workstation to initiate the reaction.
(§12) After 10 minutes, 400 μL of stop solution was added to the reaction plate to stop the reaction, and the reaction plate was placed on ice for 5 minutes. […] The peak areas of the substrate and product were detected by liquid chromatography tandem mass spectrometry (LC/MS/MS). […]
(§13) A nonlinear regression analysis of mean percentage activity of the test compound against concentration was performed using SigmaPlot (V.11). The IC50 value was calculated using a three- or four-parameter inverse logarithmic equation. […]

[9] = target: CYP2C9 (Homo sapiens (Human), UniProt P11712); assay: CYP inhibition in human liver microsomes, CYP2C9; type: in vitro ADME; conditions: 0.05-50 μM
Description: as §10, §11, §12, §13

[10] = target: CYP2C19 (Homo sapiens (Human), UniProt P33261); assay: CYP inhibition in human liver microsomes, CYP2C19; type: in vitro ADME; conditions: 0.05-50 μM
Description: as §10, §11, §12, §13

[11] = target: CYP2D6 (Homo sapiens (Human), UniProt P10635); assay: CYP inhibition in human liver microsomes, CYP2D6; type: in vitro ADME; conditions: 0.05-50 μM
Description: as §10, §11, §12, §13

[12] = target: CYP3A4 (Homo sapiens (Human), UniProt P08684); assay: CYP inhibition in human liver microsomes, CYP3A4; type: in vitro ADME; conditions: 0.05-50 μM
Description: as §10, §11, §12, §13

[13] = Pharmacokinetics study of mice; type: in vivo; conditions: mouse, male CD-1 mice, plasma
Excerpt: The purpose of this experiment was to study the pharmacokinetics of the test compound in the plasma of male CD-1 mice after intravenous injection and oral administration.
The animals were randomly divided into two groups with 2 males in each group. The compounds were formulated into prescribed preparations. Intravenous formulations were formulated with 5% DMS 0/95% (6% hydroxypropyl-β-cyclodextrin) to give a clear solution, and oral preparations were formulated with 0.1% Tween80/0.5% HPMC aqueous solution to give a homogeneous suspension.
Whole blood samples were collected from the saphenous vein of the animals 5 minutes, 15 minutes, 30 minutes, 1 hour, 2 hours, 4 hours, 8 hours, 12 hours, and 24 hours after administration. The whole blood sample was added to the centrifuge tube containing anticoagulant, and centrifuged at 3200 g for 10 minutes at 4° C. The supernatant of plasma was taken, frozen quickly on dry ice, and then stored in a −70±10° C. refrigerator until LC-MS/MS analysis.
WinNonlin™ Version 6.3.0 (Pharsight, Mountain View, Calif.) pharmacokinetic software was used to process the plasma drug concentration data of the compounds with a non-compartmental model. The peak concentration (Cmax), peak time (Tmax) and quantifiable end time were obtained directly from the blood drug concentration-time profile.
The following pharmacokinetic parameters were calculated using the log-linear trapezoid method: Plasma clearance rate (CL), volume of distribution (Vd), elimination phase half-life (T1/2), average residence time of drug in the body from 0 to the end time point (MRT0-last), average residence time of the drug in the body from 0 to infinite time (MRT0-inf), area under the time-plasma concentration curve from 0 to the end time point (AUC0_last), area under the time-plasma concentration curve from 0 to infinite time (AUC0-inf) and bioavailability (F).

[14] = 0.5 mg/kg, 0.5 mpk intravenous injection
[15] = 2.5 mg/kg, 2.5 mpk oral administration

Sequence of human wild-type RET kinase (P07949 29-1114): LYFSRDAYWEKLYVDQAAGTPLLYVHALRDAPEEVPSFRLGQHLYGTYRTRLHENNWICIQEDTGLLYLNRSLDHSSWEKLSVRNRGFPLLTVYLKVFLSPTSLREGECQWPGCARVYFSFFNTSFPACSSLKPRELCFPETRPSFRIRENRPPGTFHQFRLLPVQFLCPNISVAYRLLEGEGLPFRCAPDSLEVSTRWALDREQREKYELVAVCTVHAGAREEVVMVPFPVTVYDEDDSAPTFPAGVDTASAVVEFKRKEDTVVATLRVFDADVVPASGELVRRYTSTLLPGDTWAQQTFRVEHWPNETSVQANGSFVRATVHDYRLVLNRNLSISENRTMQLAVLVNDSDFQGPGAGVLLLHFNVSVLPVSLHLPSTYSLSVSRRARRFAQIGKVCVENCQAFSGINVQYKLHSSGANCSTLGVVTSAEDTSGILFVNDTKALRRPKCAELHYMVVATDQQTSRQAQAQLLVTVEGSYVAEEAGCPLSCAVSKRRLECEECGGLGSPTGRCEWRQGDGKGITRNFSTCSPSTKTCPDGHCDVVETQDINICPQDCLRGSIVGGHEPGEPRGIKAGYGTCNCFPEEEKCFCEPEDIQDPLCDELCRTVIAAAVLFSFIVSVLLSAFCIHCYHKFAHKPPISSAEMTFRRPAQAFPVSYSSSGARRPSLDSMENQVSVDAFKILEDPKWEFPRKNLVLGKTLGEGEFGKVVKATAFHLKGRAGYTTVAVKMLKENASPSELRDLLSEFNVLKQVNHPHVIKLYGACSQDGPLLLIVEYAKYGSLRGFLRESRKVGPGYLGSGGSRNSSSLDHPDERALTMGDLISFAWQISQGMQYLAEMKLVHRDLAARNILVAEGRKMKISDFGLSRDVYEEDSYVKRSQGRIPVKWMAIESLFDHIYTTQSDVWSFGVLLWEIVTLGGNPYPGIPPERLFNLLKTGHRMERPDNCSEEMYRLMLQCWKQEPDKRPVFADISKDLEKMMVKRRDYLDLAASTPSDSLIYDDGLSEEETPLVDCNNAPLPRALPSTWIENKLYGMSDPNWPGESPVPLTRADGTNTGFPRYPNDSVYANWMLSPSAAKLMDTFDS
Sequence of CYP3A4 (P08684 whole entry): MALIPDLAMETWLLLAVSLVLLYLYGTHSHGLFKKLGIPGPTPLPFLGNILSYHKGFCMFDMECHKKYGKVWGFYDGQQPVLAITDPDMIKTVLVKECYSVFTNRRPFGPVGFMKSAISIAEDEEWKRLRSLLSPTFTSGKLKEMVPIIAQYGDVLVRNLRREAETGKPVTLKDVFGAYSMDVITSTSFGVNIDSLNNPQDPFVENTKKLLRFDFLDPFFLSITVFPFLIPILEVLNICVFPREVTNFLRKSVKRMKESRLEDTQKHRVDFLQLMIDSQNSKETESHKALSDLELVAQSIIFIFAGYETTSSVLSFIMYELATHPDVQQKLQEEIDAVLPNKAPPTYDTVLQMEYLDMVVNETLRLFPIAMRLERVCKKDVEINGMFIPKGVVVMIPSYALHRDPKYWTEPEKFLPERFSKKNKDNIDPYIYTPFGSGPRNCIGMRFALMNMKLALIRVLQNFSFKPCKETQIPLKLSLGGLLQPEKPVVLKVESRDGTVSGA
Sequence of CYP2D6 (P10635 whole entry): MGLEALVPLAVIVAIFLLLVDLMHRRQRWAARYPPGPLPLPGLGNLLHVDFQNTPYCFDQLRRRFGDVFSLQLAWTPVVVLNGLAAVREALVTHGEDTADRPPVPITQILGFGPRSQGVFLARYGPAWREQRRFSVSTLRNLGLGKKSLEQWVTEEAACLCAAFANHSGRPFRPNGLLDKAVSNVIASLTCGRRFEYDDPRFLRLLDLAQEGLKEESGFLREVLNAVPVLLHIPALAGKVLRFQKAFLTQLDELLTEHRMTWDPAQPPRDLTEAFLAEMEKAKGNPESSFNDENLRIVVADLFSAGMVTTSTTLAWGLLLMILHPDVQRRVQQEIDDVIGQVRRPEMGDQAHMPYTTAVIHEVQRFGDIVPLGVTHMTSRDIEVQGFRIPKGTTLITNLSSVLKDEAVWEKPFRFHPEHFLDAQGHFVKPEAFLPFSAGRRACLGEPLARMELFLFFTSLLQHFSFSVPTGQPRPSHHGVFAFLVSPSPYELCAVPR
Sequence of CYP2C9 (P11712 whole entry): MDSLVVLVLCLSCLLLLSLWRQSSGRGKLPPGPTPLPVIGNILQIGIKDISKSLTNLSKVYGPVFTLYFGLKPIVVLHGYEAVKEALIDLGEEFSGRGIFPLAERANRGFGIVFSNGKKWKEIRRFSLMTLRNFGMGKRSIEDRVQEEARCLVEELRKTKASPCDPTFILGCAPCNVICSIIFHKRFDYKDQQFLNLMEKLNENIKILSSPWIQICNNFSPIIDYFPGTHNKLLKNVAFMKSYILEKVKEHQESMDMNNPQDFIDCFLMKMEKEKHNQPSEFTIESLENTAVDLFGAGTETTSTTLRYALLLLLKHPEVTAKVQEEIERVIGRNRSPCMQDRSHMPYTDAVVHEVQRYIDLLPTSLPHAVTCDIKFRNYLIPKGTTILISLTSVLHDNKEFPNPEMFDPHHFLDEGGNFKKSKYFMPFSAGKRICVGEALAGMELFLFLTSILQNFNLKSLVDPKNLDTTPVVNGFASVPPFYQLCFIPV
Sequence of human V804M mutant RET kinase (P07949 29-1114 V804M): as the sequence (P07949 29-1114) above, with V776M counted along it
Sequence of CYP1A2 (P05177 whole entry): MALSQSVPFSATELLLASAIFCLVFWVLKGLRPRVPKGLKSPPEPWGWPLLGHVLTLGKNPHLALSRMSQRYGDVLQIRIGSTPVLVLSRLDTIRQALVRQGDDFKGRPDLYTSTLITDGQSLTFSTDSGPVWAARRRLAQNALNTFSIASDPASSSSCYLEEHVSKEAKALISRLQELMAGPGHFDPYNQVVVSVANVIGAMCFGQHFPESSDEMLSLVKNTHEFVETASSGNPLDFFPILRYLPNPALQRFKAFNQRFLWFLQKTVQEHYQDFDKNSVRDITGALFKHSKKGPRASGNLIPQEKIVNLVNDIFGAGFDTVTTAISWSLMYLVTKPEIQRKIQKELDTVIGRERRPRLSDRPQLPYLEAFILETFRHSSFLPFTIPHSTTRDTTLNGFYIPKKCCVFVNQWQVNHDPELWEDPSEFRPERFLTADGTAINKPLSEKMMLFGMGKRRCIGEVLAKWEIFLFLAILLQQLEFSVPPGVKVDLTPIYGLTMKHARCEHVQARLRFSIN
Sequence of CYP2C19 (P33261 whole entry): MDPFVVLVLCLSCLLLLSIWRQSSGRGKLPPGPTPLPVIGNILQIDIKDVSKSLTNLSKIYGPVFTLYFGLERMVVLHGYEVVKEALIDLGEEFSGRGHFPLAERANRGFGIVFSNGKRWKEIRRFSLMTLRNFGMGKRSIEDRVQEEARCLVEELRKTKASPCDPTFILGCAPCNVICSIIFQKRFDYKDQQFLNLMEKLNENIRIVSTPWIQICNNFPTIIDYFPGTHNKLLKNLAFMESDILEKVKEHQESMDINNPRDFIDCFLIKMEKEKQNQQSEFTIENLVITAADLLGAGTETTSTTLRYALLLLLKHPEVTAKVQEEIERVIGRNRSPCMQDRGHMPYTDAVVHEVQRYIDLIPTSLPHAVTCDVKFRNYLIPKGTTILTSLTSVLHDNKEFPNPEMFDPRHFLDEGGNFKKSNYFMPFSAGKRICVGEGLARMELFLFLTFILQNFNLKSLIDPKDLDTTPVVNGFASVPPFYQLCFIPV

## CCN1CCN(Cc2cc(F)c(NC(=O)Cc3ccc(-c4cnc5cc(OC)c(OC)cc5c4)nc3)cc2C(F)(F)F)CC1 [Compound 1]
[1]
  IC50: 0.0005 µM
[2]
  IC50: 0.0009 µM
[3]
  CLint scaled at 1 μM: 20.7 mL/min/kg
[4]
  CLint scaled at 1 μM: 127 mL/min/kg
[5]
  CLint scaled at 1 μM: 22.5 mL/min/kg
[6]
  CLint scaled at 1 μM: < 17.3 mL/min/kg
[7]
  CLint scaled at 1 μM: 88.5 mL/min/kg
[8]
  IC50: > 50 µM
[9]
  IC50: 12.5 µM
[10]
  IC50: 16.9 µM
[11]
  IC50: 18.8 µM
[12]
  IC50: > 50 µM
[13]; [14]
  AUC(0-inf): 5.19 µM·h
  C0: 1300 nM
  clearance: 2.68 mL/min/kg
  half-life: 6.93 h
[13]; 0.5 mg/kg, 0.5 mpk intravenous injection, read-out: Vdss
  Vd: 1.52 L/kg
[13]; [15]
  AUC(0-inf): 12.5 µM·h
  Cmax: 958 nM
  Tmax: 8 h
  half-life: 5.16 h
